US5128359A, “Benzimidazole and azabenzimidazole derivatives which are thromboxane receptor antagonists, their methods of preparation” (Laboratoires UPSA, priority 1990, dated 1992)

Molecular target: T1, TXA2 receptors of human platelets (Homo sapiens, UniProt P21731)
T1 construct: Human platelets incubate in the presence of a single concentration; endogenous in cells; host or cells: human platelets
T1 sequence (P21731 1-343): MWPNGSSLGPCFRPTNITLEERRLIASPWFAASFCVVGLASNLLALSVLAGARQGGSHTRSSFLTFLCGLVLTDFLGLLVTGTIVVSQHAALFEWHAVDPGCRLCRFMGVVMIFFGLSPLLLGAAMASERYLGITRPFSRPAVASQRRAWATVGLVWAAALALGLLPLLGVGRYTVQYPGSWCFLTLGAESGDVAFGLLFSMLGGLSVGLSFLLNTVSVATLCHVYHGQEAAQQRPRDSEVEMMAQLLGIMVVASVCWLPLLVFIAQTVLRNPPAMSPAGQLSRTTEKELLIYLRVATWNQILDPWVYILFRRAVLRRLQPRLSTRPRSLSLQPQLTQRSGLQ
Experiment: displacement of radioligand [^125 I]PTA-OH specifically bound to the TXA2 receptors of human platelets
Assay type: binding
Details: for inhibition at 10 µM / inhibition at 0.1 µM: 0.5 h, 30 minutes at 37° C; for inhibition at 10 µM: 1E-5 M competing agent, read-out: % displacement, Concentration 1E-5 M; for inhibition at 0.1 µM: 1E-7 M competing agent, read-out: % displacement, Concentration 1E-7 M; for Ki: determined according to the formula of CHENG and PRUSOFF, read-out: Ki (inhibition constant)
Procedure: The affinity of the products of the Examples described for thromboxane A2 receptors is evaluated by the technique of displacing a radioligand specifically bound to the TXA2 receptors of human platelets. […] The reaction is completed by the addition of a buffer, followed by rapid filtration through […] filters. […] The results are expressed, for the doses tested, as the percentage displacement of the radioligand specifically bound to the TXA2 receptors of human platelets.

| inhibition at 10 µM | inhibition at 0.1 µM | Ki | Compound |
| --- | --- | --- | --- |
| 92% | 71% |  | CC(C)(CC(=O)O)Cc1nc2cc(Cl)ccc2n1Cc1ccc(Cl)c(Cl)c1 [Example 101, 4-[1-(3,4-Dichlorobenzyl)-5-chlorobenzimidazol-2-yl]-3,3-dimethylbutanoic acid] |
| 100% | 49% |  | CC(C)(CC(=O)O)Cc1nc2ccccc2n1Cc1cccc(C(F)(F)F)c1 [Example 71, 4-[1-(3-Trifluoromethylbenzyl)benzimidazol-2-yl]-3,3-dimethylbutanoic acid] |
| 93% | 8% |  | O=C(O)CCCSc1nc2cc(F)ccc2n1Cc1ccc(Cl)cc1 [Example 65, 4-[1-(4-Chlorobenzyl)-5 fluorobenzimidazol-2-yl]mercaptobutanoic acid] |
| 95% | 74% |  | CC(C)(CC(=O)O)Cc1nc2cc(Cl)ccc2n1Cc1ccc(Br)cc1F [Example 135, 4-[1-(2-Fluoro-4-bromobenzyl)-5-chlorobenzimidazol-2-yl]3,3-dimethylbutanoic acid] |
| 100% | 10% |  | CC(CC(=O)O)Cc1nc2ccccc2n1Cc1ccc(Cl)cc1 (centres unmarked) [Example 83, 4-[1-(4-Chlorobenzyl)benzimidazol-2-yl]-3-methylbutanoic acid] |
| 87% | 77% |  | CC(C)(CC(=O)O)Cc1nc2cc(Cl)ccc2n1Cc1ccc(Cl)cc1F [Example 123, 4-[1-(2-Fluoro-4-chlorobenzyl)-5-chlorobenzimidazol-2-yl]3,3-dimethylbutanoic acid] |
| 100% | 83% | 60.1 nM | CC(C)(CC(=O)O)Cc1nc2ccccc2n1Cc1ccc([N+](=O)[O-])cc1 [Example 81, 4-[1-(4-Nitrobenzyl)benzimidazol-2-yl]-3,3-dimethylbutanoic acid] |
| 95% | 13% |  | CC(C)(CC(=O)O)Cc1nc2ccccc2n1Cc1ccccc1 [Example 58, 4-(1 Benzylbenzimidazol-2-yl)-3,3-dimethylbutanoic acid] |
| 100% | 98% | 13 nM | CC(C)(CC(=O)O)Cc1nc2cc(Cl)ccc2n1Cc1ccc(Br)cc1 [Example 139, 4-[1 (4-Bromobenzyl)-5-chlorobenzimidazol-2-yl]-3,3-dimethylbutanoic acid] |
| 98% | 100% |  | CC(C)(CC(=O)O)Cc1nc2cc(F)ccc2n1Cc1ccc(Br)cc1F [Example 105, 4-[1-(2-Fluoro-4-bromobenzyl)-5-fluorobenzimidazol-2-yl]-3,3-dimethylbutanoic acid] |
| 100% | 37% |  | O=C(O)[C@@H]1CCC[C@H]1c1nc2cc(F)ccc2n1Cc1ccc(Cl)cc1 (relative stereo) [Example 153, Trans 2-[1-(4-chlorobenzyl)-5-fluorobenzimidazol-2-yl]cyclopentane-1-carboxylic acid] |
| 100% | 89% | 31 nM | COc1ccc(Cn2c(CC(C)(C)CC(=O)O)nc3ccccc32)cc1 [Example 68, 4-[1-(4-Methoxybenzyl)benzimidazol-2-yl]-3,3-dimethybutanoic acid] |
| 98% | 85% |  | CC(C)(CC(=O)O)Cc1nc2ccccc2n1Cc1ccc2ccccc2c1 [Example 84, 4-[1-(Naphth-2-ylmethyl)benzimidazol-2-yl]-3,3-dimethylbutanoic acid] |
